From patent US9360471B2, “Anti-aging agents and methods to identify them” (priority 2009, dated 2016)
Where “and” joins values, the source holds several entries; their conditions need not be identical. Identical values can stand only once.

Tests used:
human lymphoblastoid L40 = test: mitochondrial mass in human lymphoblastoid L40, MitoTracker Green FM and FACS; assay type: cell-based; settings: for mitochondrial mass: 2-day treatment, 10 μM LY294002, 2 μM DATS, 1 μM BITC, 1 μM PITC, 2 μg/mL resveratrol, 0.03 μM lycopene, 6.7 μM PEITC, 5 mM silibinin, 1.25 mM selenite, 2.5 mM genistein, 250 μg/mL GSE, 50 μg/mL EGCG, 3 mg/mL bilberry extract, 1 μM AITC, 50 pM rapamycin, 250 μM AICAR
Description: Mitochondrial mass was monitored by staining the 60% Ethanol-fixed cells with MitoTracker Green FM prior to FACS analysis.

[1] = test system: senescent WI-38 cells (human primary fibroblast); test: loss of senescent WI-38 cells, β-galactosidase (X-gal) staining; assay type: cell-based; settings: 56 days in senescence; 50 pM rapamycin, 250 μM AICAR, 20 μg/mL EGCG, 1.6 μg/mL GSE, 20 μg/mL bilberry extract, 1 μM AITC, 12.5 μM 2-deoxyglucose; 3-day-on/7-day-off (AICAR 2-day-on/8-day-off)
Procedure: AICAR and reduced glucose treatment were incubated with cells in a 2-day-on/8-day-off cycle, while the rest of agents were in a 3-day-on/7-day-off cycle. The treatment started at passage 29. The medium was refreshed every 3 days. After 56-days from passage 31 (senescence), the cells were briefly fixed in 2% formaldehyde/0.2% glutaraldehyde and stained with 1 mg/mL 5-bromo-4-chloro-3-indolyl β-D-galactoside (X-gal) (in buffer containing 40 mM citric acid/sodium phosphate, pH 6.0, 5 mM potassium ferrocyanide, 5 mM potassium ferricyanide, 150 mM NaCl, and 2 mM MgCl2) at 37° C. for 18 hrs for the senescence marker, cellular β-galactosidase activity (blue in color picture and dark grey in black/white picture). Surviving senescent cells were viewed under a microscope.
This invention discloses that CR or rapamycin also prolongs senescence and prevents cell death induced by telomere dysfunction in human cells. Primary human embryonic lung fibroblasts WI-38 were used. […] Cells at passage 29 were treated with 50 pM rapamycin. The treatment was on a 10-day cycle of 3-day with and 7-day without rapamycin (also termed as 3-day-on/7-day-off cycle). […] Due to increased cytosol β-galactosidase activity, senescent cells are stained a blue color (shown as dark grey in black/white picture). […] Rapamycin didn't transform cells since the senescence marker was still present and cell growth was not observed.

cdc13-1 cells [2] = test: cdc13-1 cell survival after cdc13-1p inactivation, colony formation assay; assay type: cell-based, budding yeast; settings: for cell death triggered by inactivation of cdc13-1p (colony formation assay): 37° C. about 30 hrs, 6.7 μM PEITC, 5 mM silibinin, 1.25 mM selenite, 2.5 mM genistein, 250 μg/mL GSE, 50 μg/mL EGCG, 3 mg/mL bilberry extract
Procedure: To induce telomere dysfunction, fresh overnight cultures of cdc13-1 were diluted into YEPD medium with the indicated concentrations of glucose or 2-deoxyglucose and incubated at 37° C. for 24 hrs. For colony formation assay, treated cells were then serially diluted 10-fold in H2O and 5 μL was spotted onto regular YEPD plates. The plates were incubated at 24° C. for survived cells to form colonies. The starting number of live-cells was also counted by this colony formation assay. (B) Nitrogen restriction inhibits cell death induced by cdc13-1p inactivation as monitored by a colony formation assay. Cells were incubated in synthetic medium (SC) or SC—N (SC without amino acids and (NH4)2SO4 as nitrogen sources) at 37° C. for 24 hrs. The number of survived cells was counted using colony formation assay as described in 1A. (C-D) Inhibition of TOR by low doses of rapamycin (labeled as Rapa) (below growth inhibition concentration) can prevent cell death induced by cdc13-1p inactivation. Cells were incubated with the indicated concentrations of rapamycin in YEPD medium at 37° C. for 24 hrs. The number of survived cells was measured by the colony formation assay as in 1A. For growth curve, fresh overnight culture was diluted into YEPD medium and incubated at 24° C. in the presence of the indicated concentrations of rapamycin. Cell Density (OD595) was measured at the indicated time points and plotted against the time. (E) Deterioration of growth arrested cdc13-1 cells can be delayed by low dose of rapamycin (1 nM) and glucose restriction (0.5%) as measured by counting surviving cells using the colony formation assay. The data represent an average of three experiments.
(§1) (A) Cells were incubated at 37° C. to inactivated cdc13-1p, in YEPD medium, YEPD+1 nM rapamycin or YEPD with 0.5% glucose. At the indicated time points, an aliquot of cells was taken out and fixed with 50% ethanol at −20° C. for about 4 hrs, and then digested with 0.2 mg/mL RNase A in 50 mM Tris pH 7.6 at 37° C. overnight. The cells were next washed with 50 mM Tris pH 7.6 and treated with 40 μg/mL proteinase K at 55° C. for 2 hrs. After being washed again, cells were stained with 100 μg/mL propidium iodide for 20 min in the dark prior to FACS (Fluorescence activated cell sorter) analysis. […] Cells were incubated at 37° C. for 2 hours first, then diluted with a 37° C.-YEPD medium, YEPD with rapamycin to make a final concentration of 1 nM, or with a 37° C.-medium without glucose to make final 0.5% glucose. The cells were continuously incubated at 37° C. for 22 hrs. Surviving cells were counted using the colony formation assay.
The 6.7 μM PEITC, 5 mM silibinin, 1.25 mM selenite, 2.5 mM genistein, 250 μg/mL grape seed extract (GSE), 50 μg/mL EGCG, and 3 mg/mL bilberry extract (BE) were incubated with cells at 37° C. for about 30 hrs. The cell survival was measured by the colony formation assay at a permissive temperature 24° C.
In addition, limitation of nitrogen by SC—N medium (containing 0.67% yeast nitrogen base in absence of amino acids and (NH4)2SO4, 2% glucose, plus a mixture of 100 mg/L each of histidine, leucine, tryptophan and uracil for this yeast strain) prevented the cell death (FIG. 1B). […] After 60 hrs of incubation at 37° C., cell survival was at least 100-fold more than those without treatment.

NIH3T3 cells = test: mitochondrial mass in NIH3T3 cells treated with TPA; assay type: cell-based, mouse; settings: 10 μM TPA, two days
Procedure: NIH3T3 cells were incubated in DMEM medium (DMEM with 10% FCS, 100 units/mL penicillin, 100 μg/mL streptomycin and 2 mM glutamine) in the presence of control DMSO, 10 μM TPA, 1 nM rapamycin, 10 μM TPA+1 nM rapamycin, 40 μM AICAR, or 10 μM TPA+40 μM AICAR at 37° C. in a humidified atmosphere consisting of 95% air and 5% CO2 for two days. Cells were then harvested by trypsin and fixed by 60% ethanol. The cells were stained with MitoTracker Greeen FM in darkness for 30 min prior to FACS analysis. The data represents the average of a triplica-experiment.

marine models = marine models (Calvert 2008); cited from earlier work
cdc13-1 cells [3] = test: DNA content / cell cycle FACS analysis after cdc13-1p inactivation; assay type: cell-based, budding yeast; settings: rapamycin 1 nM in YEPD, 37° C. for 2 hrs
Procedure: as §1

WI-38 cells = test: growth and population doubling of WI-38 cells; assay type: cell-based, human; settings: 25 pM rapamycin; without rapamycin 5.18 or 5.12
Procedure: (A) WI-38 cells were treated with the indicated concentrations of rapamycin as in FIG. 7. The treatment started at passage 29. Cells entered senescence at passage 31. After 65-days in senescence, surviving cells were measured by MTT (3-(4,5-dimethylthiazol-2-yl)-2,5-diphenyltetrazolium bromide, a tetrazole) staining. The purple color of MTT generated by mitochondrial reductase was read in 570 nm by a microplate reader. The data is a representative of three independent duplica-experiments. (B) The effect of rapamycin on growth of WI-38 cells. Cells were cultured as in FIG. 7. Arrows indicate the time point when rapamycin was added. 25 pM rapamycin has little effect on growth rate, but increases the population doubling (PD) from 5.18 to 6.82. Population doublings were calculated using the following formula: PD=log(Nf/N0)/log 2, where Nf is the final cell number and N0 is the number of initially seeded cells. Data is a representative of two independent duplica-experiments. (C) The low doses of rapamycin increase protein levels of p53, p21 and pRB. WI-38 cells on the 20th day after the last split (senescence) were treated with rapamycin for 18 hrs. Cell lysates were then analyzed by Western blotting using antibodies specifically against p53, p21 or pRB.

For `O=CC[C@@H](O)[C@H](O)[C@H](O)CO` [2-deoxyglucose, reference compound], the mitochondria mass (human lymphoblastoid L40; 12.5 μM 2-deoxyglucose) was “increased mitochondria mass”, the “loss of the senescent WI-38 cells” value [1] was “prevented” and the “cell death induced by inactivation of cdc13-1p (colony formation assay)” value (cdc13-1 cells [2]; 200 μM added to YEPD with 2% glucose, 37° C. 22 hrs) was “prevented cell death effectively”.

In the case of `C=CCN=C=S` [AITC, allyl isothiocyanate], the mitochondrial mass (human lymphoblastoid L40) was “increased” and the “loss of the senescent WI-38 cells” value [1] was “prevented”.

In the case of `O=C(O[C@@H]1Cc2c(O)cc(O)cc2O[C@@H]1c1cc(O)c(O)c(O)c1)c1cc(O)c(O)c(O)c1` [EGCG, Epigallocatechin gallate], the mitochondrial mass (human lymphoblastoid L40) was “increased”, the “loss of the senescent WI-38 cells” value [1] was “prevented” and the “cell death triggered by inactivation of cdc13-1p (colony formation assay)” value (“cell death triggered by inactivation” for short) (cdc13-1 cells [2]) was “inhibited cell death”.

For `S=C=NCCc1ccccc1` [PEITC, phenethyl isothiocyanate], the mitochondrial mass (human lymphoblastoid L40) was “increased” and the “cell death triggered by inactivation” value (cdc13-1 cells [2]) was “inhibited cell death”.

With `CCCCCCCCCCCCCC(=O)O[C@@H]1[C@@H](C)[C@@]2(O)[C@@H](C=C(CO)C[C@]3(O)C(=O)C(C)=C[C@@H]23)[C@@H]2C(C)(C)[C@]12OC(C)=O` [TPA, 12-O-tetradecanoylphorbol 13-acetate] the “mitochondrial mass in NIH 3T3 cells” value (NIH3T3 cells) was “dramatically decreased the mitochondrial mass”.

For `S=C=NCc1ccccc1` [benzyl isothiocyanate], the mitochondrial mass (human lymphoblastoid L40) was “increased”.

In the case of `C=CCSSSCC=C` [diallyl trisulfide], the mitochondrial mass (human lymphoblastoid L40) was “increased”.

With `O=c1c(-c2ccc(O)cc2)coc2cc(O)cc(O)c12` [genistein] the mitochondrial mass (human lymphoblastoid L40) was “increased” and the “cell death triggered by inactivation” value (cdc13-1 cells [2]) was “inhibited cell death”.

For `CC(C)=CCC/C(C)=C/C=C/C(C)=C/C=C/C(C)=C/C=C/C=C(C)/C=C/C=C(C)/C=C/C=C(\C)CCC=C(C)C` [lycopene], the mitochondrial mass (human lymphoblastoid L40) was “increased”.

In the case of `CN(C)C(=N)N=C(N)N` [metformin], the myocardial infarction (marine models) is given as “can reduce myocardial infarction”.

For `S=C=Nc1ccccc1` [phenyl isothiocyanate], the mitochondrial mass (human lymphoblastoid L40) was “increased”.

For `CO[C@H]1C[C@@H]2CC[C@@H](C)[C@@](O)(O2)C(=O)C(=O)N2CCCC[C@H]2C(=O)O[C@H]([C@H](C)C[C@@H]2CC[C@@H](O)[C@H](OC)C2)CC(=O)[C@H](C)/C=C(\C)[C@@H](O)[C@@H](OC)C(=O)[C@H](C)C[C@H](C)/C=C/C=C/C=C/1C` [rapamycin], the “cells entered the G2/M phase of cell cycle” value (cdc13-1 cells [3]) was “more than 95%”, the “cell survival compared with those without treatment” value (cdc13-1 cells [2]; low dose of rapamycin (1 nM), after 60 hrs of incubation at 37° C.) was “at least 100 fold” and the “population doubling (PD), replication potential” value (WI-38 cells) was 6.8 and 6.82.

In the case of `Oc1ccc(C=Cc2cc(O)cc(O)c2)cc1` [resveratrol], the mitochondrial mass (human lymphoblastoid L40) was “increased”.

In the case of `O=[Se]([O-])[O-].[Na+].[Na+]` [selenite, selenite (Na2SeO3)], the mitochondrial mass (human lymphoblastoid L40) was “increased” and the “cell death triggered by inactivation” value (cdc13-1 cells [2]) was “inhibited cell death”.
